Data as given in US8877707B2, “Inhibitors of HCV NS5A” (Presidio Pharmaceuticals, Inc., priority 2010, dated 2014).

The molecules below were run on HCV genotype 1b replicon in Huh 7 cells (assay: HCV replicon assay (1b_Huh-Luc/Neo-ET cell line, luciferase readout)). Settings: Hepatitis C virus, Huh-7; HCV 1b replicon; read-out: Inhibition of HCV genotype 1b.
Assay type: cell-based
Outline: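 Huh 7 cells carrying a bicistronic genotype 1b luciferase replicon were treated with compound in triplicate the day after plating and incubated 72 h. Luciferase activity expressed as % of untreated control; EC50 from a four-parameter logistic fit, repeated several times.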

| SMILES | EC50 |
| --- | --- |
| COC(=O)N[C@@H](C)C(=O)N1CCC[C@H]1C(=O)N[C@@H](C)c1ccc(-c2ccc3cc(-c4cnc([C@@H]5CCCN5C(=O)[C@H](C)NC(=O)OC)[nH]4)ccc3c2)cc1 [compound 556] | 10 to 999 nM |
| COC(=O)N[C@H](C(=O)N1CCC[C@H]1c1ncc(-c2ccc3cc(-c4ccc(-c5cnc([C@@H]6CCCN6C(=O)[C@H](NC(=O)OC)c6cccs6)[nH]5)cc4)ccc3c2)[nH]1)C(C)O (stereo partly drawn) [compound 498] | < 1 nM |
| COC(=O)N[C@@H](C(=O)N1CCC[C@H]1CNC(=O)c1cnc2cc(-c3ccc4c(c3)CCc3nc([C@@H]5CCCN5C(=O)[C@H](NC(=O)OC)c5ccccc5)[nH]c3-4)ccc2c1)c1ccccc1 [compound 548] | < 1 nM |
| COC(=O)N[C@H](C(=O)N1CCC[C@H]1c1ncc(-c2ccc3cc(-c4cnc5nc([C@@H]6CCCN6C(=O)[C@@H](NC(=O)OC)[C@@H](C)OC)[nH]c5c4)ccc3c2)[nH]1)[C@@H](C)OC [compound 519] | < 1 nM |
| COC(=O)N[C@@H](C(=O)N1CCC[C@H]1c1ncc(-c2ccc(-c3ccc4cc(-c5cnc([C@@H]6CCCN6C(=O)[C@H](NC(=O)OC)c6ccsc6)[nH]5)ccc4n3)c(F)c2)[nH]1)c1ccccc1 [compound 485] | < 1 nM |
| COC(=O)N[C@H](C(=O)N1CCC[C@H]1c1ncc(-c2ccc(-c3cc4ccc(-c5cnc([C@@H]6CCCN6C(=O)[C@H](NC(=O)OC)c6ccccc6)[nH]5)cc4cn3)cc2)[nH]1)[C@@H](C)O [compound 484] | < 1 nM |
| COC[C@H](NC(=O)OC)C(=O)N1CCC[C@H]1c1ncc(-c2ccc3cc(-c4ccc(-c5cnc([C@@H]6COCCN6C(=O)[C@@H](NC(=O)OC)c6ccccc6)[nH]5)cc4)ccc3c2)[nH]1 [compound 462] | < 1 nM |

Same assay, conditions: Hepatitis C virus; Table 1; genotype 1b replicon, Huh 7 cells, 72 h, luciferase; read-out: Inhibition of HCV genotype 1b

| SMILES | EC50 |
| --- | --- |
| COC(=O)N[C@H](C(=O)N1CCC[C@H]1c1ncc(-c2ccc(-c3nc4ccc(-c5cnc([C@@H]6CCCN6C(=O)[C@@H](NC(=O)OC)C(C)C)[nH]5)cc4n3C)cc2)[nH]1)C(C)C [compound 231] | < 1 nM |
| COC(=O)N[C@H](C(=O)N1CCC[C@H]1c1ncc(-c2ccc3nc(-c4ccc5c(c4)CCc4nc([C@@H]6CCCN6C(=O)[C@@H](NC(=O)OC)C(C)C)[nH]c4-5)ccc3c2)[nH]1)C(C)C [292-1] | < 1 nM |
| COC(=O)N[C@H](C(=O)N1CCC[C@H]1c1nc(-c2ccc3cc(-c4ccc(-c5cnc([C@@H]6CCCN6C(=O)[C@@H](c6ccccc6)N6CCCC6)[nH]5)cc4)ccc3c2)c[nH]1)C(C)C [compound 10] | < 1 nM |
| COC(=O)N[C@H](C(=O)N1CCC[C@H]1c1nc(-c2ccc3cc(-c4ccc(-c5cnc([C@@H]6CCCN6C(=O)[C@H](NC(=O)OC)c6ccccc6)[nH]5)cc4F)ccc3c2)c[nH]1)C(C)C [compound 64] | < 1 nM |
| COC(=O)N[C@H](C(=O)N1CCC[C@H]1c1nc2ccc(-c3ccc4nc(-c5cnc([C@@H]6CCCN6C(=O)[C@@H](NC(=O)OC)C6CCOCC6)[nH]5)ccc4c3)cc2[nH]1)C(C)C [compound 211] | < 1 nM |
| COC(=O)N[C@H](C(=O)N1CCC[C@H]1c1ncc(-c2ccc(-c3ccc4cc(-c5c[nH]c([C@@H]6CCCN6C(=O)[C@H](NC(=O)OC)c6ccccc6)n5)ccc4c3)c(F)c2)[nH]1)C1CCOCC1 [compound 106] | < 1 nM |
| CCNC(=O)N[C@@H](C(=O)N1CCC[C@H]1c1ncc(-c2ccc(-c3ccc4cc(-c5c[nH]c([C@@H]6CCCN6C(=O)[C@@H](NC(=O)OC)C(C)C)n5)ccc4n3)cc2)[nH]1)c1ccccc1 [compound 33] | < 1 nM |
| COC(=O)N[C@H](C(=O)N1CCC[C@H]1c1nc(-c2ccc3nc(-c4ccc(-c5cnc([C@@H]6CCCN6C(=O)[C@H](NC(=O)NC6CC6)c6ccccc6)[nH]5)cc4)ccc3c2)c[nH]1)C(C)C [compound 34] | < 1 nM |
| COC(=O)N[C@H](C(=O)N1CCC[C@H]1c1nc(-c2ccc3nc(-c4ccc(-c5cnc([C@@H]6CCCN6C(=O)[C@@H](NC(=O)OC)C(C)C)[nH]5)cc4)cnc3c2)c[nH]1)C(C)C [compound 11] | < 1 nM |
| COC(=O)N[C@H](C(=O)N1CCC[C@H]1c1nc(-c2ccc3cc(-c4ccc(-c5cnc([C@@H]6CCCN6C(=O)[C@@H](NC(=O)OC6CCOCC6)c6ccccc6)[nH]5)cc4)ccc3c2)c[nH]1)C1CCOCC1 [compound 112] | < 1 nM |
| C#CC[C@H](NC(=O)OC)C(=O)N1CCC[C@H]1c1ncc(-c2ccc3nc(-c4ccc(-c5cnc([C@@H]6CCCN6C(=O)[C@@H](NC(=O)OC)C(C)C)[nH]5)cc4F)ccc3c2)[nH]1 [compound 161] | < 1 nM |
| CNC(=O)N[C@@H](C(=O)N1CCC[C@H]1c1ncc(-c2ccc3cc(-c4ccc5nc([C@@H]6CCCN6C(=O)[C@@H](NC(=O)OC)C(C)C)[nH]c5c4)ccc3c2)[nH]1)c1ccccc1 [compound 186] | < 1 nM |
| COC(=O)N[C@H](C(=O)N1CCC[C@H]1c1ncc(-c2ccc(-c3ccc4cc(-c5c[nH]c([C@@H]6CCCN6C(=O)[C@@H](NC(=O)OC)C6CCOCC6)n5)ccc4c3)nc2)[nH]1)C(C)C [compound 52] | < 1 nM |
| COC(=O)N[C@H](C(=O)N1CCC[C@H]1c1nc2c([nH]1)-c1ccc(-c3ccc4cc(-c5cnc([C@@H]6CCCN6C(=O)[C@H](NC(=O)OC)c6ccccc6)[nH]5)ccc4n3)cc1CC2)C(C)C [294-1] | < 1 nM |
| COC(=O)N[C@H](C(=O)N1CCC[C@H]1c1ncc(-c2ccc3cc(-c4ccc5nc([C@@H]6CCCN6C(=O)[C@@H](NC(=O)OC)C6CC6)[nH]c5c4)ccc3c2)[nH]1)C1CC1 [compound 228] | < 1 nM |
| COC(=O)N[C@H](C(=O)N1CCC[C@H]1c1nc(-c2ccc3cc(-c4ccc(-c5cnc([C@@H]6CCCN6C(=O)[C@@H](c6ccccc6)N(C)C)[nH]5)cc4)ccc3c2)c[nH]1)C(C)C [compound 5] | < 1 nM |

Same assay, conditions: Hepatitis C virus; Table 2; genotype 1b replicon, Huh 7 cells, 72 h, luciferase; read-out: Inhibition of HCV genotype 1b

| SMILES | EC50 |
| --- | --- |
| COC(=O)N[C@H](C(=O)N1CCOC[C@H]1c1ncc(-c2ccc3cc(-c4ccc(-c5cnc([C@@H]6CCCN6C(=O)[C@H](NC(=O)OC)c6ccccc6)[nH]5)cc4)ccc3c2)[nH]1)[C@@H](C)OC [compound 327] | < 1 nM |
| COC(=O)N[C@H](C(=O)N1CCC[C@H]1c1ncc(-c2ccc3cc(-c4ccc(-c5cnc([C@@H]6CCCN6C(=O)[C@H](NC(=O)OC)c6cccs6)[nH]5)cc4)ccc3c2)[nH]1)[C@@H](C)OC [331-1] | < 1 nM |
| COC(=O)N[C@H](C(=O)N1CCC[C@H]1c1ncc(-c2ccc3cc(-c4ccc5nc([C@@H]6CCCN6C(=O)[C@@H](NC(=O)OC)[C@@H](C)OC)[nH]c5c4)ncc3c2)[nH]1)[C@@H](C)OC [compound 377] | < 1 nM |
| CC[C@@H](C)[C@H](NC(=O)OC)C(=O)N1CCC[C@H]1c1ncc(-c2ccc3cc(-c4ccc5nc([C@@H]6CCCN6C(=O)[C@@H](NC(=O)OC)[C@H](C)CC)[nH]c5c4)ncc3c2)[nH]1 [compound 375] | < 1 nM |
| CC[C@H](C)[C@H](NC(=O)OC)C(=O)N1CCC[C@H]1c1ncc(-c2ccc3nc(-c4ccc5nc([C@@H]6CCCN6C(=O)[C@@H](NC(=O)OC)[C@@H](C)CC)[nH]c5c4)ccc3c2)[nH]1 [compound 383] | < 1 nM |
| COC(=O)N[C@H](C(=O)N1CCC[C@H]1c1ncc(-c2ccc3cc(-c4ccc5nc([C@@H]6CCCN6C(=O)[C@@H](NC(=O)OC)C6CC6)[nH]c5c4)ncc3c2)[nH]1)C1CC1 [compound 376] | < 1 nM |
| COC(=O)N[C@H](C(=O)N1CCC[C@H]1c1ncc(-c2ccc3nc(-c4ccc5nc([C@@H]6CCCN6C(=O)[C@@H](NC(=O)OC)C6CC6)[nH]c5c4)ccc3c2)[nH]1)C1CC1 [compound 385] | < 1 nM |
